Measured values published in patent publication US11352350B2, “IRAK degraders and uses thereof” (Kymera Therapeutics, Inc., priority 2018, dated 2022).

How the values were obtained:
IRAK4 [1] = biological target: T1, IRAK4 (Homo sapiens (Human), UniProt Q9NWZ3); assay: hPBMC IRAK4 degradation flow assay; assay type: cell-based; conditions: hPBMC monocyte
Protocol: hPBMC IRAK4 degradation flow assay. Frozen PBMCs were thawed into RPMI with 10% FBS and allowed to recover. On the same day as thawed, PBMCs were plated in 96 well plate, 90 uL per well. Compound plates were prepared and a 10 point, 5-fold dilution was performed with a final DMSO concentration of 0.1%. Compound 10 μL per well was added, sealed and incubated at 37° C., 5% C02 for 20 hours (for 4 hour treatment, compounds were prepared and added the following day). […] Cells were spun down and washed two times with PBS/0.5% BSA, aspirated to pellet and placed into −80° C. freezer until further processing for flow. On the flow run day, PBMC plates were thawed and samples were transferred to PCR plates. The pre-perm staining cocktail (CD3 Ax488/CD8 BUV805/CD14 BUV395/CD16/56 BV711/CD19 BV785) was added to samples and incubated for 30 minutes at room temperature. Samples were washed two times and permeabilized with methanol for 10 minutes at 4° C. […] Samples were washed two times with PBS/BSA and run on a BD LSRFortessa. Mononuclear cells are gated by SSCH/FSCH and single cells. Monocytes are then gated through CD14 positive gate and lymphocytes are gated through CD14 negative gate. To determine absolute DC50s and max degradation values, MFI values were normalized to DMSO max and 20 hour 10 μM min control. Twenty hour dose curves were calculated using a 4 parameter logistic regression curve fit, no constraints (Top doses were removed if hook effects were observed and the bottom was constrained to 0).

OCI-LY10 = assay: CTG Cell Viability Assay - OCI-LY10; assay type: cell-based, human; conditions: Homo sapiens, OCI-Ly10, 96 h, OCI-LY10, 4 days; read-out: CTG Cell Viability Assay - OCI-LY10: Average external-IC50
Procedure, shortened: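 OCI-LY10 cells exposed to 9-dose, 1:3 dilutions from 10 μM top (0.2% DMSO) for 4 days at 37° C, 5% CO2. Viability by CellTiter-Glo luminescence; IC50 from three-parameter logistic fit.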

IRAK4 [2] = biological target: T1, IRAK4; assay: IRAK4 MSD degradation in OCI-LY10; assay type: cell-based; conditions: OCI-LY10, 4 hrs
Procedure, shortened: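 OCI-LY10 cells treated with 8-point 1:3 dilutions (top 1 to 10 μM final) for 4 to 24 h at 37° C. Lysate IRAK4 measured by MSD sandwich immunoassay (2H9 capture, Y279 detection, SULFO-TAG anti-rabbit). DC50 from three-parameter logistic fit.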

IL-6 = IL-6 secretion in hPBMC using R848 stimulation; assay type: cell-based, human; conditions: Homo sapiens, 20 h, hPBMC, R848 as stim, t = 20 h
[3] = 20 hr, flow assay, read-out: IRAK4 degradation in hPBMC monocyte at 20 hr: Average external Abs DC50
[4] = MSD, read-out: IRAK4 MSD degradation in OCI-LY10 at 4 hrs: Average external-Abs DC50
[5] = 20 hrs, read-out: IRAK4 degradation in hPBMC monocyte: DC50
[6] = read-out: IRAK4 MSD degradation in OCI-LY10 at 4 hrs: DC50

T1 sequence (Q9NWZ3 whole entry): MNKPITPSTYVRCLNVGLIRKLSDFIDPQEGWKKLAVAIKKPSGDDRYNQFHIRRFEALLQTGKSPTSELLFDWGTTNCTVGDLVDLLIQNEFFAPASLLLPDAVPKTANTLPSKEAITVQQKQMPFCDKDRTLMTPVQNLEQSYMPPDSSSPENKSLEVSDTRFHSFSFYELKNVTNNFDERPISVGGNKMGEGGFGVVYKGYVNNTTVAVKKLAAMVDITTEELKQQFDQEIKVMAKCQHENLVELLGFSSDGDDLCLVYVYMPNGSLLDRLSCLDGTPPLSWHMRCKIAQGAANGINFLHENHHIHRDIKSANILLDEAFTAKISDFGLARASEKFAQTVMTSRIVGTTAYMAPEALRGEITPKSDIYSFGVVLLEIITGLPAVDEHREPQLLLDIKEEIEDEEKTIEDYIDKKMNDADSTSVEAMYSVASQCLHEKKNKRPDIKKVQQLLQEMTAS

| Compound | DC50 (IRAK4 [1]; [3]) | IC50 (OCI-LY10) | DC50 (IRAK4 [2]; [4]) | IC50 (IL-6) | DC50 (IRAK4 [1]; [5]) | DC50 (IRAK4 [2]; [6]) |
| --- | --- | --- | --- | --- | --- | --- |
| CN(CC(CCCOCCCc1cccc2c1n(C)c(=O)n2C1CCC(=O)NC1=O)C(=O)O)C[C@H]1CC[C@H](n2cc(NC(=O)c3coc(-c4ccnc(NCC5CC5)c4)n3)c(C(F)F)n2)CC1 (stereo partly drawn) [I-396, 2-[[[4-[4-[[2-[2-(Cyclopropylmethylamino)-4-pyridyl]oxazole-4-carbonyl]amino]-3-(difluoromethyl)pyrazol-1-yl]cyclohexyl]methyl-methyl-amino]methyl]-5-[3-[1-(2,6-dioxo-3-piperidyl)-3-methyl-2-oxo-benzimidazol-4-yl]propoxy]pentanoic acid] | 10 to 100 nM | 50 to 100 nM | 10 to 100 nM | 1 to 10 nM | – | – |
| Cn1c(=O)n(C2CCC(=O)NC2=O)c2cccc(CCCC3CCN(C[C@H]4CC[C@H](n5cc(NC(=O)c6cnn7ccc(N8C[C@H]9C[C@@H]8CO9)nc67)c(C(F)F)n5)CC4)CC3)c21 (stereo partly drawn) [I-416] | < 10 nM | > 1000 nM | < 10 nM | < 1 nM | – | – |
| Cn1c(=O)n(C2CCC(=O)NC2=O)c2cccc(CCCCN3CCN(C[C@H]4CC[C@H](n5cc(NC(=O)c6cnn7ccc(N8C[C@H]9C[C@@H]8CO9)nc67)c(C(F)F)n5)CC4)CC3)c21 (stereo partly drawn) [I-471] | – | – | – | < 1 nM | < 10 nM | < 10 nM |
| C[C@H]1CN(c2ccn3ncc(C(=O)NC4=NC([C@H]5CC[C@H](CN6CCC(CCCc7cccc8c7n(C)c(=O)n8C7CCC(=O)NC7=O)CC6)CC5)N=C4C(F)F)c3n2)C[C@H](C)O1 (stereo partly drawn) [I-543] | – | – | – | < 1 nM | < 10 nM | 10 to 100 nM |
| Cn1c(=O)n(C2CCC(=O)NC2=O)c2cccc(CCN3CC4(CCN(C(=O)[C@H]5CC[C@H](n6cc(NC(=O)c7cnn8ccc(N9C[C@H]%10C[C@@H]9CO%10)nc78)c(C(F)F)n6)CC5)CC4)C3)c21 (stereo partly drawn) [I-420] | < 10 nM | < 50 nM | < 10 nM | < 1 nM | – | – |
| Cn1c(=O)n(C2CCC(=O)NC2=O)c2cccc(CCCOC[C@@H]3CN(C[C@H]4CC[C@H](n5cc(NC(=O)c6cnn7ccc(N8CCOCC8)nc67)c(C(F)F)n5)CC4)CCO3)c21 (stereo partly drawn) [I-448] | – | > 1000 nM | – | 1 to 10 nM | < 10 nM | 10 to 100 nM |
| CN1C(=O)C(C2CCC(=O)NC2=O)c2cc(CCCOC3CCN(C[C@H]4CC[C@H](C5N=C(NC(=O)c6cnn7ccc(N8C[C@H]9C[C@@H]8CO9)nc67)C(C(F)F)=N5)CC4)CC3)ccc21 (stereo partly drawn) [I-553] | – | > 1000 nM | – | 1 to 10 nM | 10 to 100 nM | 100 to 1000 nM |
| CN(C[C@H]1CC[C@H](C2N=C(NC(=O)c3cnn4ccc(N5C[C@H]6C[C@@H]5CO6)nc34)C(C(F)F)=N2)CC1)C1CCC2(CC1)CC(Cc1cccc3c1n(C)c(=O)n3C1CCC(=O)NC1=O)C2 (stereo partly drawn) [I-554] | – | > 1000 nM | – | < 1 nM | < 10 nM | 10 to 100 nM |
| C[C@@H]1CN(c2ccn3ncc(C(=O)Nc4cn([C@H]5CC[C@H](CN6CCC(CCCc7cccc8c7n(C)c(=O)n8C7CCC(=O)NC7=O)CC6)CC5)nc4C(F)F)c3n2)C[C@H](C)O1 (stereo partly drawn) [I-540] | – | – | – | 1 to 10 nM | < 10 nM | 10 to 100 nM |
| CN(CCCc1cccc2c1n(C)c(=O)n2C1CCC(=O)NC1=O)C(=O)c1ccc(N2CCC(n3cc(NC(=O)c4cnn5ccc(N6C[C@H]7C[C@@H]6CO7)nc45)c(C(F)F)n3)CC2)cc1 (stereo partly drawn) [I-479] | – | > 1000 nM | – | 10 to 100 nM | 100 to 1000 nM | 100 to 1000 nM |
| Cn1c(=O)n(C2CCC(=O)NC2=O)c2cccc(CCOC3CC4(CCN(C[C@H]5CC[C@H](n6cc(NC(=O)c7cnn8ccc(N9C[C@H]%10C[C@@H]9CO%10)nc78)c(C(F)F)n6)CC5)CC4)C3)c21 (stereo partly drawn) [I-469] | – | – | – | < 1 nM | < 10 nM | < 10 nM |
| CN(C[C@H]1CC[C@H](n2cc(NC(=O)c3cnn4ccc(N5C[C@H]6C[C@@H]5CO6)nc34)c(C(F)F)n2)CC1)C1CCN(Cc2cccc3c2n(C)c(=O)n3C2CCC(=O)NC2=O)CC1 (stereo partly drawn) [I-465] | – | – | – | < 1 nM | < 10 nM | < 10 nM |
| Cn1c(=O)n(C2CCC(=O)NC2=O)c2cccc(CN3CCC4(CC3)CCN(C(=O)c3ccc(C5N=C(NC(=O)c6cnn7ccc(N8C[C@H]9C[C@@H]8CO9)nc67)C(C(F)F)=N5)cc3)CC4)c21 (stereo partly drawn) [I-432] | < 10 nM | – | – | 1 to 10 nM | – | – |
| C[C@@H]1CN(c2ccn3ncc(C(=O)NC4=NC([C@H]5CC[C@H](CN6CCC(CC#Cc7cccc8c7n(C)c(=O)n8C7CCC(=O)NC7=O)CC6)CC5)N=C4C(F)F)c3c2)C[C@H](C)O1 (stereo partly drawn) [I-530] | – | – | – | < 1 nM | < 10 nM | 10 to 100 nM |
| Cn1c(=O)n(C2CCC(=O)NC2=O)c2ccc(CCCN3CC4(CCN(C(=O)c5ccc(C6N=C(NC(=O)c7cnn8ccc(N9C[C@H]%10C[C@@H]9CO%10)nc78)C(C(F)F)=N6)cc5)CC4)C3)cc21 (stereo partly drawn) [I-433] | < 10 nM | – | – | < 1 nM | – | – |
| C[C@H]1CN(c2ccn3ncc(C(=O)NC4=NC([C@H]5CC[C@H](CN6CCC(CC#Cc7cccc8c7n(C)c(=O)n8C7CCC(=O)NC7=O)CC6)CC5)N=C4C(F)F)c3n2)C[C@H](C)O1 (stereo partly drawn) [I-549] | – | – | – | 1 to 10 nM | < 10 nM | 10 to 100 nM |
| Cn1c(=O)n(C2CCC(=O)NC2=O)c2cccc(CCC(=O)N3CCC4(CCN(C[C@H]5CC[C@H](n6cc(NC(=O)c7cnn8ccc(N9C[C@H]%10C[C@@H]9CO%10)nc78)c(C(F)F)n6)CC5)CC4)CC3)c21 (stereo partly drawn) [I-467] | – | – | – | < 1 nM | < 10 nM | < 10 nM |
| C[C@@H]1CN(c2ccn3ncc(C(=O)NC4=NC([C@H]5CC[C@H](CN6CCC(CC#Cc7cccc8c7n(C)c(=O)n8C7CCC(=O)NC7=O)CC6)CC5)N=C4C(F)F)c3c2)C[C@@H](C)O1 (stereo partly drawn) [I-528] | – | – | – | 1 to 10 nM | < 10 nM | 10 to 100 nM |
| Cn1c(=O)n(C2CCC(=O)NC2=O)c2cccc(CCCC3CCN(Cc4ccc(C5N=C(NC(=O)c6cnn7ccc(N8C[C@H]9C[C@@H]8CO9)nc67)C(C(F)F)=N5)cc4)CC3)c21 (stereo partly drawn) [I-428] | < 10 nM | – | – | 1 to 10 nM | – | – |
| Cn1c(=O)n(C2CCC(=O)NC2=O)c2cccc(CN3CCN(CC[C@H]4CC[C@H](n5cc(NC(=O)c6cnn7ccc(N8C[C@H]9C[C@@H]8CO9)nc67)c(C(F)F)n5)CC4)CC3)c21 (stereo partly drawn) [I-510] | – | > 1000 nM | – | 1 to 10 nM | < 10 nM | – |
| Cn1c(=O)n(C2CCC(=O)NC2=O)c2cccc(CN3CC4(CCN(Cc5ccc(-n6cc(NC(=O)c7cnn8ccc(N9C[C@H]%10C[C@@H]9CO%10)nc78)c(C(F)F)n6)cc5)CC4)C3)c21 (stereo partly drawn) [I-464] | – | – | – | 1 to 10 nM | 10 to 100 nM | 10 to 100 nM |
| Cn1c(=O)n(C2CCC(=O)NC2=O)c2cccc(C[C@H]3CC[C@H](N(C)C[C@H]4CC[C@H](n5cc(NC(=O)c6cnn7ccc(N8C[C@H]9C[C@@H]8CO9)nc67)c(C(F)F)n5)CC4)CC3)c21 (stereo partly drawn) [I-508] | – | > 1000 nM | – | 1 to 10 nM | < 10 nM | – |
| C[C@@H]1CN(c2ccn3ncc(C(=O)NC4=NC([C@H]5CC[C@H](CN6CCC(CCCc7cccc8c7n(C)c(=O)n8C7CCC(=O)NC7=O)CC6)CC5)N=C4C(F)F)c3n2)C[C@@H](C)O1 (stereo partly drawn) [I-537] | – | – | – | 1 to 10 nM | < 10 nM | < 10 nM |
| Cn1c(=O)n(C2CCC(=O)NC2=O)c2cccc(CC3CC4(CCN(Cc5ccc(-n6cc(NC(=O)c7cnn8ccc(N9C[C@H]%10C[C@@H]9CO%10)nc78)c(C(F)F)n6)cc5)CC4)C3)c21 (stereo partly drawn) [I-466] | – | – | – | 1 to 10 nM | < 10 nM | 100 to 1000 nM |
| Cn1c(=O)n(C2CCC(=O)NC2=O)c2cccc(CCCN3CCOC4(CCN(C(=O)[C@H]5CC[C@H](n6cc(NC(=O)c7cnn8ccc(N9C[C@H]%10C[C@@H]9CO%10)nc78)c(C(F)F)n6)CC5)CC4)C3)c21 (stereo partly drawn) [I-431] | < 10 nM | – | – | < 1 nM | – | – |
| Cn1c(=O)n(C2CCC(=O)NC2=O)c2cccc(CCCCN3CCN(C(=O)[C@H]4CC[C@H](n5cc(NC(=O)c6cnn7ccc(N8C[C@H]9C[C@@H]8CO9)nc67)c(C(F)F)n5)CC4)CC3)c21 (stereo partly drawn) [I-472] | – | – | – | < 1 nM | < 10 nM | < 10 nM |
| Cn1c(=O)n(C2CCC(=O)NC2=O)c2cccc(C#CCOC3CCN(C[C@H]4CC[C@H](n5cc(NC(=O)c6cnn7ccc(N8C[C@H]9CC[C@@H](C8)O9)nc67)c(C(F)F)n5)CC4)CC3)c21 (stereo partly drawn) [I-547] | – | – | – | 1 to 10 nM | < 10 nM | < 10 nM |
